# Experimental data: ChEMBL document CHEMBL1201862, “PubChem BioAssay data set” (2004)
#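 96-well plates; 48 h exposure; 5 concentrations. Endpoints by linear interpolation between flanking doses. Not reached: highest tested concentration assigned. GI50 marks 50% less growth.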 Active and inactive are the calls of the source. Rule as the data show it: active = GI50 up to about 1.1 µM and inactive = higher.
# What was measured:
# Experiment in all cases: NCI-60 cell line screen, 48 h
# A549 = test system: A549
# DMS-114 = test system: DMS-114
# LXFL 529 = test system: LXFL 529
# HCT-116 = test system: HCT-116
# K562 = test system: K562
# CAKI-1 = test system: CAKI-1
# OVCAR-5 = test system: OVCAR-5
# OVCAR-3 = test system: OVCAR-3
# SF-539 = test system: SF-539
# OVCAR-4 = test system: OVCAR-4
# LOX IMVI = test system: LOX IMVI
# TK-10 = test system: TK-10
# SW-620 = test system: SW-620
# SF-295 = test system: SF-295
# SK-MEL-28 = test system: SK-MEL-28
# SK-OV-3 = test system: SK-OV-3
SMILES,GI50 (A549),GI50 (DMS-114),GI50 (LXFL 529),GI50 (HCT-116),GI50 (K562),GI50 (CAKI-1),GI50 (OVCAR-5),GI50 (OVCAR-3),GI50 (SF-539),GI50 (OVCAR-4),GI50 (LOX IMVI),GI50 (TK-10),GI50 (SW-620),GI50 (SF-295),GI50 (SK-MEL-28),GI50 (SK-OV-3)
CC(=O)c1c2c(cc3c1CC1(C3)Cc3cc4c(c(C(C)=O)c3C1)CCC4)CCC2,> 100 µM (inactive),> 100 µM (inactive),> 100 µM (inactive),> 100 µM (inactive),38 µM (inactive),> 100 µM (inactive),> 100 µM (inactive),> 100 µM (inactive),> 100 µM (inactive),> 100 µM (inactive),> 100 µM (inactive),> 100 µM (inactive),> 100 µM (inactive),> 100 µM (inactive),> 100 µM (inactive),
O=c1cc2ccccc2nn1Cc1cccc(Cl)c1,49.8 µM (inactive),66.4 µM (inactive),,78.9 µM (inactive),32.4 µM (inactive),> 100 µM (inactive),> 100 µM (inactive),62.2 µM (inactive),> 100 µM (inactive),> 100 µM (inactive),> 100 µM (inactive),> 100 µM (inactive),92.5 µM (inactive),> 100 µM (inactive),98.9 µM (inactive),> 100 µM (inactive)
Cc1ccc(S(=O)(=O)C(CC(=O)N2CCCC2)C(=O)c2ccccc2)cc1 (stereo not drawn),> 100 µM (inactive),> 100 µM (inactive),38.5 µM (inactive),55.6 µM (inactive),24.9 µM (inactive),46.9 µM (inactive),> 100 µM (inactive),> 100 µM (inactive),> 100 µM (inactive),> 100 µM (inactive),44.5 µM (inactive),> 100 µM (inactive),37.7 µM (inactive),> 100 µM (inactive),> 100 µM (inactive),
CC(=O)OC1(C#N)CC2OC1C1C2N1C(=O)OC(C)(C)C (stereo not drawn),> 100 µM (inactive),> 100 µM (inactive),> 100 µM (inactive),> 100 µM (inactive),> 100 µM (inactive),> 100 µM (inactive),> 100 µM (inactive),,> 100 µM (inactive),> 100 µM (inactive),> 100 µM (inactive),> 100 µM (inactive),> 100 µM (inactive),,> 100 µM (inactive),> 100 µM (inactive)
Nc1ncnc2sc(Nc3ccccc3)nc12,> 100 µM (inactive),,> 100 µM (inactive),,22.6 µM (inactive),55.5 µM (inactive),> 100 µM (inactive),> 100 µM (inactive),> 100 µM (inactive),93.3 µM (inactive),99.3 µM (inactive),46.9 µM (inactive),> 100 µM (inactive),> 100 µM (inactive),> 100 µM (inactive),46.2 µM (inactive)
N#CC1CC2(CCN1C(=O)c1ccccc1)OCCO2 (stereo not drawn),> 100 µM (inactive),> 100 µM (inactive),> 100 µM (inactive),> 100 µM (inactive),> 100 µM (inactive),> 100 µM (inactive),> 100 µM (inactive),> 100 µM (inactive),> 100 µM (inactive),> 100 µM (inactive),,> 100 µM (inactive),> 100 µM (inactive),> 100 µM (inactive),,> 100 µM (inactive)
COc1ccc2c3c1C(=O)CCCC3CO2 (stereo not drawn),> 100 µM (inactive),> 100 µM (inactive),> 100 µM (inactive),,> 100 µM (inactive),,> 100 µM (inactive),> 100 µM (inactive),> 100 µM (inactive),> 100 µM (inactive),> 100 µM (inactive),> 100 µM (inactive),> 100 µM (inactive),> 100 µM (inactive),> 100 µM (inactive),> 100 µM (inactive)
CC(SC(=O)Nc1ccc(/N=N/c2ccccc2)cc1)C(=O)O (stereo not drawn),56.4 µM (inactive),> 100 µM (inactive),98.4 µM (inactive),> 100 µM (inactive),> 100 µM (inactive),> 100 µM (inactive),> 100 µM (inactive),> 100 µM (inactive),88.5 µM (inactive),> 100 µM (inactive),> 100 µM (inactive),58.1 µM (inactive),> 100 µM (inactive),56.4 µM (inactive),> 100 µM (inactive),
CN(C)c1ccc(/C=c2/sc3nc(=O)c(-c4ccccc4NC(=O)C(F)(F)F)nn3c2=O)cc1,> 100 µM (inactive),20.6 µM (inactive),> 100 µM (inactive),,> 100 µM (inactive),> 100 µM (inactive),> 100 µM (inactive),> 100 µM (inactive),> 100 µM (inactive),> 100 µM (inactive),> 100 µM (inactive),> 100 µM (inactive),> 100 µM (inactive),> 100 µM (inactive),> 100 µM (inactive),> 100 µM (inactive)
Cc1c2cc[n+](C)cc2c(C)c2c1[nH]c1ccc(OCC(F)(F)F)cc12,1.53 µM (inactive),1.42 µM (inactive),0.501 µM (active),3.95 µM (inactive),2.65 µM (inactive),8.34 µM (inactive),,2.59 µM (inactive),1.25 µM (inactive),2.45 µM (inactive),,,3.35 µM (inactive),0.327 µM (active),,3.89 µM (inactive)
